Data reported in PMC11327140, “Selective inhibitor of sodium-calcium exchanger, SEA0400, affects NMDA receptor currents and abolishes their calcium-dependent block by tricyclic antidepressants” (Frontiers in Pharmacology, 2024).
Several values for one entry are separate records, joined by “and”; a condition that tells them apart may be missing. Identical values can stand only once. Entries after “also recorded” stand apart in the source; their conditions may differ.

Experiments:
[1] = molecular target: NMDA receptor (NMDAR) currents (Rattus norvegicus, UniProt P35439+Q00959+Q00960); assay: Whole-cell patch-clamp recording of NMDA-activated currents in cortical neurons of primary culture; type: cell-based; conditions: for change of fraction of current blocked in the presence of SEA0400: 50 nM SEA0400, 10 µM KB-R7943, 10 µM ATL, 1 µM DES; for increase of IC50 for NMDAR inhibition in the presence of SEA0400: 50 nM SEA0400 versus control
Chain of NMDA receptor (NMDAR) currents (Q00960 27-1482 limits assumed, other chains not shown): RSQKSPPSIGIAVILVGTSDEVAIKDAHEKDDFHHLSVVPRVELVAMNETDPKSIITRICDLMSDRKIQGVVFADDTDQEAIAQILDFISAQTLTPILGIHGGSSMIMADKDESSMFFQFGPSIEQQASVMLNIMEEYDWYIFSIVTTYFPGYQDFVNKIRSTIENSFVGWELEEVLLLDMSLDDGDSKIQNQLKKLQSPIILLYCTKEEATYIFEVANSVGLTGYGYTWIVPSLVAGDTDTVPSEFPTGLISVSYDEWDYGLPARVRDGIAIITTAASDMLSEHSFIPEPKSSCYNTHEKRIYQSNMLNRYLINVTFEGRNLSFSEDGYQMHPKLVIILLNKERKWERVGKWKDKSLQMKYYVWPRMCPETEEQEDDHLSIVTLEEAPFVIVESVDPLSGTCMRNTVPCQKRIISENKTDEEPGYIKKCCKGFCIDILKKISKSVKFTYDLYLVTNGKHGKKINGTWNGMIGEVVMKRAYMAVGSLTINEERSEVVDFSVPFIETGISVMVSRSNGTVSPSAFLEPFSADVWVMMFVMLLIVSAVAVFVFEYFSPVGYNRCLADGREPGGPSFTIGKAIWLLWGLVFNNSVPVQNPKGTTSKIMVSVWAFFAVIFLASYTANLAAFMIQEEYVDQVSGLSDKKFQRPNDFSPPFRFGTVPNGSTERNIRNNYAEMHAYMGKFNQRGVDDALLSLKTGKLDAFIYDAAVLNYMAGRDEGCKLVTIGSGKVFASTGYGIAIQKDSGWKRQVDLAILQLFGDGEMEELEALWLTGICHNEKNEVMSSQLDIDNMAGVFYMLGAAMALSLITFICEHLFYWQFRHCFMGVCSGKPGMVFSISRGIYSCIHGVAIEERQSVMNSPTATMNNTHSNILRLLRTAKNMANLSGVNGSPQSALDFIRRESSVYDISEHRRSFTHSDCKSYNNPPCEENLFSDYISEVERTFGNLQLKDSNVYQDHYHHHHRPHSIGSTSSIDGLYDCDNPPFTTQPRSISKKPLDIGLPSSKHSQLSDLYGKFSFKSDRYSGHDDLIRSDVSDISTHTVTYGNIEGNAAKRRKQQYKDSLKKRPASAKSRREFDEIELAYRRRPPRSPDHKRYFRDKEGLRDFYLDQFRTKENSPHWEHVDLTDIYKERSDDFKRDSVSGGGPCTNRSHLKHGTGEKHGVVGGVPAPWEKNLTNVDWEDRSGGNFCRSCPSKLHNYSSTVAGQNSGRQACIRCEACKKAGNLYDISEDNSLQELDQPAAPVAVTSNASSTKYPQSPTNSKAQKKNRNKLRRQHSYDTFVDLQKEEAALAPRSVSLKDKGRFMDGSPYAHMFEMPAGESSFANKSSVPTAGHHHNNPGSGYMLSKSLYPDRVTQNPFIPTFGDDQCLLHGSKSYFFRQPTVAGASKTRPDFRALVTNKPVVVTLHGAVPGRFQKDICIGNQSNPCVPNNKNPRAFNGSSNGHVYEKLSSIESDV
Chain of NMDA receptor (NMDAR) currents (Q00959 23-1464 limits assumed, other chains not shown): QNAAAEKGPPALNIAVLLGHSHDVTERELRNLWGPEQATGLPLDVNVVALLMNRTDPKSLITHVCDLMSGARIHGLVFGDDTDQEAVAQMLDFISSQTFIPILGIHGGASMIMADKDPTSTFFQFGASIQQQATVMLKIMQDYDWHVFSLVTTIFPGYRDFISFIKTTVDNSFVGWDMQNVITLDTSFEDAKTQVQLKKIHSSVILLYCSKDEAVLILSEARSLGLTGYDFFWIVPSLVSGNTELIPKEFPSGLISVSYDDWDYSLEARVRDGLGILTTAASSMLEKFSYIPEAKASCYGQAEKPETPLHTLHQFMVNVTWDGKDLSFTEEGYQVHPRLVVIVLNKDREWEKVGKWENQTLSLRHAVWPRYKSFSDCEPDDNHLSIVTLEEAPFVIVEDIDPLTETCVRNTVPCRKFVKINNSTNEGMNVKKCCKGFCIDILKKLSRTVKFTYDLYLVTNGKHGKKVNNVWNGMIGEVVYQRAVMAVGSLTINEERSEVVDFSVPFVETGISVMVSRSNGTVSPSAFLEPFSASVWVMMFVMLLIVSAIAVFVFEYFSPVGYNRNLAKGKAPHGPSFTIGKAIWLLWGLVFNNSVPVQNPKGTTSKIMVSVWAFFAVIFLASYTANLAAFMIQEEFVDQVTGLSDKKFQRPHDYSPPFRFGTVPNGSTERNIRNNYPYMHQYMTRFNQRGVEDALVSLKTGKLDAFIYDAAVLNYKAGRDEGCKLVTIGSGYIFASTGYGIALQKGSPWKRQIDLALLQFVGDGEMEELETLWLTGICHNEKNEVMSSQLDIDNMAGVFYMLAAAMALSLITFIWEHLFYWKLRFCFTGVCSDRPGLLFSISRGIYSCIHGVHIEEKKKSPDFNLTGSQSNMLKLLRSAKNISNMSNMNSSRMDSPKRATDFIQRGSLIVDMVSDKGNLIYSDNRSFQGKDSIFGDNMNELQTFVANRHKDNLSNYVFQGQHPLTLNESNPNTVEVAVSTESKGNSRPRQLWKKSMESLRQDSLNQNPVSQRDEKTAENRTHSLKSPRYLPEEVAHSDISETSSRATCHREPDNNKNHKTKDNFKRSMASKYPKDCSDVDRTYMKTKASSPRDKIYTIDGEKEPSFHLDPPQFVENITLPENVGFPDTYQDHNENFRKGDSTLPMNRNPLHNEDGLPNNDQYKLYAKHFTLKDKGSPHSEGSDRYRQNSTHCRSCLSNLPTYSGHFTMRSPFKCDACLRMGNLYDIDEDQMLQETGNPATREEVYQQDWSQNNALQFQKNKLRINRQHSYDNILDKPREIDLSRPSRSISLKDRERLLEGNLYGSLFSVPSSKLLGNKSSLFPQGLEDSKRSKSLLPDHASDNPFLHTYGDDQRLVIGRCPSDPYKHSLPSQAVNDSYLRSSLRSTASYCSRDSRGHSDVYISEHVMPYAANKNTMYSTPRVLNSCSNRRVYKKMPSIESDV

NMDAR channels = tested on: NMDAR channels; set-up: method as in MacDonald et al., 1991; conditions: ref MacDonald et al., 1991; cited from earlier work
NCX = tested on: NCX; set-up: method as in Matsuda et al., 2001; conditions: ref Matsuda et al., 2001; read-out: IC50 for SEA0400 inhibition of NCX in neurons; cited from earlier work
NMDAR currents = tested on: NMDAR currents; set-up: method as in Sibarov et al., 2015; conditions: 10 µM KB-R7943; ref Sibarov et al., 2015; cited from earlier work

CNCCCN1c2ccccc2CCc2ccccc21 [DES, desipramine]
change of fraction of current blocked in the presence of SEA0400 ([1]; 1 mM Ca2+, -70 mV): decreased
increase of IC50 for NMDAR inhibition in the presence of SEA0400 [1]: ~16 fold
increase of IC50 for NMDAR inhibition in the presence of SEA0400 ([1]; listed as desipramine): about 20 fold

C[C@]12N[C@H](Cc3ccccc31)c1ccccc12 [MK-801]
rate constant of dissociation from NMDAR channels (NMDAR channels): ~0.003 s⁻¹

CCOc1ccc(Oc2ccc(OCc3cc(F)ccc3F)cc2)c(N)c1 [SEA0400]
IC50 (NCX): 33 nM
decrease of decay time constant versus control ([1]; 50 nM SEA0400, 1 mM Ca2+): 2 fold
effect on NMDAR currents in BAPTA-loaded neurons ([1]; 50 nM SEA0400, 1 mM external Ca2+, neurons loaded with BAPTA): abolished the effect; also recorded: did not cause NMDAR inhibition
voltage dependence of decrease of steady-state amplitude ([1]; 50 nM SEA0400, -70 mV versus +30 mV, 1 mM Ca2+): did not depend on membrane voltage
effect on steady-state amplitude of NMDA-activated currents in Ca2+-free solution ([1]; 50 nM SEA0400, Ca2+ omitted from external solution, -70 mV): abolished the effect; also recorded: did not cause any decrease
IC50 ([1]; 2 mM Ca2+, -70 mV, 100 µM NMDA + 30 µM Gly, steady state, read-out: IC50 for SEA0400 inhibition of NMDA-activated currents): 27 nM and ~27 nM
decrease of steady-state amplitude of NMDAR currents (upper limit of effect) ([1]; SEA0400 itself, extracellular Ca2+ present): ≤ 30%
decay time constant of NMDAR current from peak to steady state ([1]; in the presence of 50 nM SEA0400, 1 mM Ca2+, -70 mV): 2.0 ± 0.2 s

N=C(N)SCCc1ccc(OCc2ccc([N+](=O)[O-])cc2)cc1 [KB-R7943]
decrease of NMDAR currents (NMDAR currents): about 60%
change of fraction of current blocked in the presence of SEA0400 ([1]; 1 mM Ca2+, -70 mV): increased

CN(C)CCC=C1c2ccccc2CCc2ccccc21 [ATL, amitriptyline]
change of fraction of current blocked in the presence of SEA0400 ([1]; 1 mM Ca2+, -70 mV): decreased
increase of IC50 for NMDAR inhibition in the presence of SEA0400 [1]: 23 fold
increase of IC50 for NMDAR inhibition in the presence of SEA0400 ([1]; listed as amitriptyline): about 20 fold

c1ccc(C2(N3CCCCC3)CCCCC2)cc1 [phencyclidine]
rate constant of dissociation from NMDAR channels (NMDAR channels): about 0.03 s^-1
